The source made the active and inactive calls. The rule behind the calls is not given here.
Assays:
[1] = molecular target: T1, Liver X receptor (Homo sapiens) (UniProt Q13133+P55055); assay: Agonist activity at LXR in human HepG2 cells assessed as reduction in cellular triglyceride at 100 uM after 24 hrs; assay type: cell-based; parameters: scale not given: the % may be the effect or the level left
[2] = molecular target: T1, Liver X receptor (Homo sapiens); assay: Agonist activity at LXR in human THP1 cells assessed as reduction in cellular triglyceride at 100 uM after 24 hrs; assay type: cell-based; parameters: scale not given: the % may be the effect or the level left; details: THP-1
[3] = molecular target: T1, Liver X receptor (Homo sapiens); assay: Agonist activity at LXR in human HepG2 cells assessed as reduction in cellular triglyceride after 24 hrs; assay type: cell-based
[4] = molecular target: T1, Liver X receptor (Homo sapiens); assay: Agonist activity at LXR in human HepG2 cells assessed as reduction in cellular cholesterol after 24 hrs; assay type: cell-based
[5] = molecular target: T1, Liver X receptor (Homo sapiens); assay: Agonist activity at LXR in human THP1 cells assessed as reduction in cellular cholesterol after 24 hrs; assay type: cell-based; details: THP-1
[6] = molecular target: T1, Liver X receptor (Homo sapiens); assay: Agonist activity at LXR in human THP1 cells assessed as reduction in cellular triglyceride after 24 hrs; assay type: cell-based; details: THP-1
[7] = molecular target: T1, Liver X receptor (Homo sapiens); assay: Agonist activity at LXR in human HepG2 cells assessed as upregulation of ABCG5 expression at 100 uM after 24 hrs by RT-qPCR analysis relative to control; assay type: cell-based
[8] = molecular target: T1, Liver X receptor (Homo sapiens); assay: Agonist activity at LXR in human HepG2 cells assessed as upregulation of SREBP1C expression at 100 uM after 24 hrs by RT-qPCR analysis relative to control; assay type: cell-based
[9] = molecular target: T1, Liver X receptor (Homo sapiens); assay: Agonist activity at LXR in human HepG2 cells assessed as upregulation of ABCA1 expression at 100 uM after 24 hrs by RT-qPCR analysis relative to control; assay type: cell-based
[10] = molecular target: T2, Oxysterols receptor LXR-beta (Homo sapiens, UniProt P55055); assay: Agonist activity at LXRbeta in human HepG2 cells assessed as LXRbeta transcription at 50 to 100 uM after 24 hrs by RT-qPCR analysis; assay type: cell-based
T2 sequence (P55055 whole entry): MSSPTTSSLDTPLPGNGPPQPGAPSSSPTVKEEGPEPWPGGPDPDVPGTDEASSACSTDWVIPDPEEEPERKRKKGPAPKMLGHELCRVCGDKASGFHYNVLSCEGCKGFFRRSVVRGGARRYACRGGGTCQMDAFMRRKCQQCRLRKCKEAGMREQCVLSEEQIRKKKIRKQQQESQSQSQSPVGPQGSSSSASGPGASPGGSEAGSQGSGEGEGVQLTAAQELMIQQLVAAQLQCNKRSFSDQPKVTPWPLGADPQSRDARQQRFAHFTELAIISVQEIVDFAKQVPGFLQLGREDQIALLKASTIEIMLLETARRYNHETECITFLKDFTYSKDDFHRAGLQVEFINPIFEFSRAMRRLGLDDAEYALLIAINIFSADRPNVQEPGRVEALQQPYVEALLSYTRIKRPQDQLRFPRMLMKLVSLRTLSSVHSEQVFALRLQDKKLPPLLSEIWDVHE

[11] = molecular target: T3, Oxysterols receptor LXR-alpha (Homo sapiens) (UniProt Q13133); assay: Induction of LXRalpha transcription in human HepG2 cells at 50 to 100 uM after 24 hrs by RT-qPCR analysis relative to control; assay type: cell-based
T3 sequence (whole entry): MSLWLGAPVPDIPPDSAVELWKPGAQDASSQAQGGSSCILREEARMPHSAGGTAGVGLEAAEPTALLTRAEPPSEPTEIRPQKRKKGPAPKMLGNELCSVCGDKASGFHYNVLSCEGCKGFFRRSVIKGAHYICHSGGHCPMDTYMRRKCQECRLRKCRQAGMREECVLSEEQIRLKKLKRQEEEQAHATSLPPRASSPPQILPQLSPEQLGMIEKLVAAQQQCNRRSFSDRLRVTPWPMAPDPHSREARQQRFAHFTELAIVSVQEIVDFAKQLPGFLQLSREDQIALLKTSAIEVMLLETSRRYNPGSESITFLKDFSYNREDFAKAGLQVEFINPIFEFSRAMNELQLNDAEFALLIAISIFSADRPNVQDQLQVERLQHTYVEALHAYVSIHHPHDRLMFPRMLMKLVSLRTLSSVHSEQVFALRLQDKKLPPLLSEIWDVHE

[12] = molecular target: T2, Oxysterols receptor LXR-beta; assay: Agonist activity at human LXRbeta-LBD assessed as recruitment of co-activator peptide after 2 hrs by TR-FRET assay
[13] = molecular target: T4, Oxysterols receptor LXR-alpha (Homo sapiens, UniProt Q13133); assay: (§1) Agonist activity at human LXRalpha-LBD assessed as recruitment of co-activator peptide after 2 hrs by TR-FRET assay
T4 sequence (Q13133 whole entry): T3 sequence (whole entry)

[14] = molecular target: T2, Oxysterols receptor LXR-beta; assay: Agonist activity at LXRbeta (unknown origin) expressed in CHOK1 cells assessed as induction of transactivation activity at 100 uM after 24 hrs by luciferase reporter gene assay relative to control; assay type: cell-based; details: CHO-K1
[15] = molecular target: T4, Oxysterols receptor LXR-alpha; assay: (§2) Binding affinity to human LXRalpha-LBD by surface plasmon resonance
[16] = molecular target: T2, Oxysterols receptor LXR-beta; assay: Binding affinity to human LXRbeta-LBD by surface plasmon resonance
[17] = molecular target: T3, Oxysterols receptor LXR-alpha (Homo sapiens); assay: Agonist activity at LXRalpha (unknown origin) expressed in CHOK1 cells assessed as induction of transactivation activity at 100 uM after 24 hrs by luciferase reporter gene assay relative to control; assay type: cell-based; details: CHO-K1
[18] = molecular target: T3, Oxysterols receptor LXR-alpha (Homo sapiens); assay: Agonist activity at LXRalpha (unknown origin) expressed in CHOK1 cells assessed as induction of transactivation activity at 50 uM after 24 hrs by luciferase reporter gene assay relative to control; assay type: cell-based; details: CHO-K1
[19] = molecular target: T3, Oxysterols receptor LXR-alpha (Homo sapiens); assay: as §1
[20] = molecular target: T3, Oxysterols receptor LXR-alpha (Homo sapiens); assay: as §2

T1 sequence (P55055 whole entry, looked up, one chain of several): as the sequence (P55055 whole entry) above

Oc1cc(O)c2cc(O)c(-c3ccc(O)c(O)c3)[o+]c2c1 [CYANIDIN]
Activity [1]: -23% | Activity [2]: -21% | Activity [3]: Dose-dependent effect | Activity [4]: Dose-dependent effect | Activity [5]: Dose-dependent effect | Activity [6]: Dose-dependent effect | fold change (FC) [7]: 1.4 | fold change (FC) [8]: 3.6 | fold change (FC) [9]: 2.5 | Activity [10]: inactive | fold change (FC) [11]: 1.5 | EC50 [12]: 125 µM | EC50 [13]: 3.5 µM | Activity [14]: 33% | Kd [15]: 2.2 µM | Kd [16]: 73.2 µM | Activity [17]: 59% | Activity [18]: 32%

O=C(O)c1ccc(O)c(O)c1
Activity [12]: inactive | Activity [19]: inactive | Activity [20]: inactive | Activity [16]: inactive

O=Cc1c(O)cc(O)cc1O
Activity [12]: inactive | Activity [19]: inactive | Activity [20]: inactive | Activity [16]: inactive

CC(C)CC[C@@H](O)[C@@H](C)[C@H]1CC[C@H]2[C@@H]3CC=C4C[C@@H](O)CC[C@]4(C)[C@H]3CC[C@]12C [22(R)-HYDROXYCHOLESTEROL]
EC50 [13]: 1 µM

— ChEMBL document CHEMBL2401661, “Cyanidin, a natural flavonoid, is an agonistic ligand for liver X receptor alpha and beta and reduces cellular lipid accumulation in macrophages and hepatocytes” (Bioorg Med Chem Lett, 2013)
